According to patent publication US20240109903A1, “SUBSTITUTED HETEROCYCLES FOR TREATING CANCER” (Northwestern University, priority 2022, published 2024):

Columns and labels:
Assay type in all cases: cell-based
EKVX = test: NCI 60 five-dose screen EKVX; conditions: Homo sapiens, five-dose
M14 = test: NCI 60 five-dose screen M14; conditions: Homo sapiens, five-dose
MCF7 = test: NCI 60 five-dose screen MCF7; conditions: Homo sapiens, five-dose
ACHN = test: NCI 60 five-dose screen ACHN; conditions: Homo sapiens, five-dose
TK-10 = test: NCI 60 five-dose screen TK-10; conditions: Homo sapiens, five-dose
K-562 = test: NCI 60 five-dose screen K-562; conditions: Homo sapiens, K562, five-dose
CCRF-CEM = test: NCI 60 five-dose screen CCRF-CEM; conditions: Homo sapiens, five-dose
MDA-MB-435 = test: NCI 60 five-dose screen MDA-MB-435; conditions: Homo sapiens, five-dose
HS 578T = test: NCI 60 five-dose screen HS 578T; conditions: Homo sapiens, five-dose
HCT-116 = test: NCI 60 five-dose screen HCT-116; conditions: Homo sapiens, five-dose
BT-549 = test: NCI 60 five-dose screen BT-549; conditions: Homo sapiens, five-dose
A498 = test: NCI 60 five-dose screen A498; conditions: Homo sapiens, five-dose
SK-MEL-5 = test: NCI 60 five-dose screen SK-MEL-5; conditions: Homo sapiens, five-dose
DU-145 = test: NCI 60 five-dose screen DU-145; conditions: Homo sapiens, five-dose
PC-3 = test: NCI 60 five-dose screen PC-3; conditions: Homo sapiens, five-dose
HOP-92 = test: NCI 60 five-dose screen HOP-92; conditions: Homo sapiens, five-dose
HL-60(TB) = test: NCI 60 five-dose screen HL-60(TB); conditions: Homo sapiens, five-dose
KM12 = test: NCI 60 five-dose screen KM12; conditions: Homo sapiens, five-dose
HCT-15 = test: NCI 60 five-dose screen HCT-15; conditions: Homo sapiens, five-dose
HT29 = test: NCI 60 five-dose screen HT29; conditions: Homo sapiens, HT-29, five-dose
MALME-3M = test: NCI 60 five-dose screen MALME-3M; conditions: Homo sapiens, MALME-3M, five-dose
SW-620 = test: NCI 60 five-dose screen SW-620; conditions: Homo sapiens, five-dose
OVCAR-5 = test: NCI 60 five-dose screen OVCAR-5; conditions: Homo sapiens, five-dose
NCI-H522 = test: NCI 60 five-dose screen NCI-H522; conditions: Homo sapiens, five-dose
SK-MEL-2 = test: NCI 60 five-dose screen SK-MEL-2; conditions: Homo sapiens, five-dose
NCI/ADR-RES = test: NCI 60 five-dose screen NCI/ADR-RES; conditions: Homo sapiens, five-dose
OVCAR-3 = test: NCI 60 five-dose screen OVCAR-3; conditions: Homo sapiens, five-dose
CAKI-1 = test: NCI 60 five-dose screen CAKI-1; conditions: Homo sapiens, five-dose
[1] = read-out: LC50 (the source's name) (converted)
[2] = read-out: LC50 (the source's name)

FC(F)(F)c1cc2c(Cl)ncnc2n1CCN1CCCCC1 [NUCC-0226679]
GI50 (EKVX): 16.2 µM | IC50 (EKVX): 51.3 µM | IC (TGI) (EKVX): 85.1 µM | CC50 (EKVX; [1]): ≥ 100 µM | GI50 (M14): 12.9 µM | IC50 (M14): 22.4 µM | IC (TGI) (M14): 33.1 µM | CC50 (M14; [1]): 87.1 µM | GI50 (MCF7): 19.5 µM | IC50 (MCF7): 30.2 µM | IC (TGI) (MCF7): 75.9 µM | CC50 (MCF7; [1]): ≥ 100 µM | GI50 (ACHN): 6.46 µM | IC50 (ACHN): 17 µM | IC (TGI) (ACHN): 100 µM | CC50 (ACHN; [1]): ≥ 100 µM | GI50 (TK-10): 100 µM | IC50 (TK-10): 100 µM | IC (TGI) (TK-10): 100 µM | CC50 (TK-10; [1]): ≥ 100 µM | GI50 (K-562): 2.88 µM | IC50 (K-562): 3.63 µM | IC (TGI) (K-562): 100 µM | CC50 (K-562; [2]): ≥ 100 µM | GI50 (CCRF-CEM): 11 µM | IC50 (CCRF-CEM): 74.1 µM | IC (TGI) (CCRF-CEM): 100 µM | CC50 (CCRF-CEM; [2]): ≥ 100 µM | GI50 (MDA-MB-435): 13.2 µM | IC50 (MDA-MB-435): 21.9 µM | IC (TGI) (MDA-MB-435): 30.2 µM | CC50 (MDA-MB-435; [1]): 67.6 µM | GI50 (HS 578T): 16.6 µM | IC50 (HS 578T): 100 µM | IC (TGI) (HS 578T): 60.3 µM | CC50 (HS 578T; [2]): ≥ 100 µM | GI50 (HCT-116): 4.9 µM | IC50 (HCT-116): 6.03 µM | IC (TGI) (HCT-116): 20.4 µM | CC50 (HCT-116; [1]): 67.6 µM | GI50 (BT-549): 15.1 µM | IC50 (BT-549): 30.2 µM | IC (TGI) (BT-549): 29.5 µM | CC50 (BT-549; [1]): 58.9 µM | GI50 (A498): 100 µM | IC50 (A498): 100 µM | IC (TGI) (A498): 100 µM | CC50 (A498; [1]): ≥ 100 µM | GI50 (SK-MEL-5): 14.8 µM | IC50 (SK-MEL-5): 26.3 µM | IC (TGI) (SK-MEL-5): 30.9 µM | CC50 (SK-MEL-5; [1]): 64.6 µM | GI50 (DU-145): 30.2 µM | IC50 (DU-145): 50.1 µM | IC (TGI) (DU-145): 100 µM | CC50 (DU-145; [1]): ≥ 100 µM | GI50 (PC-3): 15.1 µM | IC50 (PC-3): 25.7 µM | IC (TGI) (PC-3): 47.9 µM | CC50 (PC-3; [1]): ≥ 100 µM | GI50 (HOP-92): 19.5 µM | IC50 (HOP-92): 63.1 µM | IC (TGI) (HOP-92): 53.7 µM | CC50 (HOP-92; [1]): ≥ 100 µM | GI50 (HL-60(TB)): 2.09 µM | IC50 (HL-60(TB)): 4.37 µM | IC (TGI) (HL-60(TB)): 7.41 µM | CC50 (HL-60(TB); [1]): ≥ 100 µM | GI50 (KM12): 29.5 µM | IC50 (KM12): 41.7 µM | IC (TGI) (KM12): 100 µM | CC50 (KM12; [1]): ≥ 100 µM | GI50 (HCT-15): 3.16 µM | IC50 (HCT-15): 4.17 µM | IC (TGI) (HCT-15): 12.9 µM | CC50 (HCT-15; [1]): 55 µM | GI50 (HT29): 20.9 µM | IC50 (HT29): 29.5 µM | IC (TGI) (HT29): 81.3 µM | CC50 (HT29; [1]): ≥ 100 µM | GI50 (MALME-3M): 19.1 µM | IC50 (MALME-3M): 63.1 µM | IC (TGI) (MALME-3M): 55 µM | CC50 (MALME-3M; [1]): ≥ 100 µM | GI50 (SW-620): 11.2 µM | IC50 (SW-620): 15.8 µM | IC (TGI) (SW-620): 28.8 µM | CC50 (SW-620; [1]): 74.1 µM | GI50 (OVCAR-5): 100 µM | IC50 (OVCAR-5): 100 µM | IC (TGI) (OVCAR-5): 100 µM | CC50 (OVCAR-5; [1]): ≥ 100 µM | GI50 (NCI-H522): 1.7 µM | IC50 (NCI-H522): 3.24 µM | IC (TGI) (NCI-H522): 3.47 µM | GI50 (SK-MEL-2): 16.6 µM | IC50 (SK-MEL-2): 33.9 µM | IC (TGI) (SK-MEL-2): 33.1 µM | CC50 (SK-MEL-2; [1]): 66.1 µM | GI50 (NCI/ADR-RES): 24 µM | IC50 (NCI/ADR-RES): 42.7 µM | IC (TGI) (NCI/ADR-RES): 64.6 µM | CC50 (NCI/ADR-RES; [1]): ≥ 100 µM | GI50 (OVCAR-3): 17.8 µM | IC50 (OVCAR-3): 33.1 µM | IC (TGI) (OVCAR-3): 35.5 µM | CC50 (OVCAR-3; [1]): 72.4 µM | GI50 (CAKI-1): 25.1 µM | IC50 (CAKI-1): 47.9 µM | IC (TGI) (CAKI-1): 100 µM | CC50 (CAKI-1; [1]): ≥ 100 µM
